Read-outs that look alike come from different tables or passages of the source.
Assays:
tinea unguium = assay: Treatment of tinea unguium, case reports; format: in vivo, humans
tinea glabrosa = assay: Topical treatment of tinea glabrosa, case reports; format: in vivo, humans
Protocol: Dermatomycosis includes dermatophytosis, cutaneous candidiasis, and malasseziosis. As time progresses with these diseases, a variety of fungi will parasitize the site.
To 2.4 g of calcium benzoate trihydrate was added water to prepare 200 g of a 1% test solution. This solution was atomized twice a day for tinea glabrosa denoted by redness on the abdominal region.
This red papule was treated twice a day with a 2% solution of ethylenediaminetetraacetic acid trisodium salt prepared in the same manner as in Example 5.

[1] = system: T. mentagrophytes IFM 59813; assay: CLSI broth microdilution drug-sensitivity test; format: cell-based, Trichophyton mentagrophytes
Protocol: (§1) The antimicrobial activity of the pharmaceutical composition for dermatomycosis according to the present invention was evaluated through drug-susceptibility tests against major pathogenic fungi performed in compliance with the guidelines of the Clinical Laboratory Standards Institute (CLSI), USA. The pathogenic fungi selected were genus Tricophyton (T. rubrum, T. mentagrophytes, T. tonsurans), genus Microsporum (M. gypseum), genus Epidermophyton (E. floccosum), genus Candida (C. albicans), genus Aspergillus (A. fumigatus), and genus Cryptococcus (C. neoformans). […] In the drug-susceptibility tests, Mg ions and Ca ions necessary for conidia (spores) of the fungus to germinate growth were included in the nutrient medium.
(§2) The antifungal activity of the compounds of the present invention was evaluated by performing drug-sensitivity tests against various pathogenic fungi. The testing method was a broth microdilution method in conformance with the guidelines of the Clinical Laboratory Standards Institute (CLSI), USA.

tinea corporis = assay: Topical treatment of tinea corporis, case reports; format: in vivo, humans; conditions: for healing of tinea corporis: Example 10: 0.01% test solutions
From the text: (§3) The compounds of the present invention were investigated with respect to the treatment of dermatomycosis affecting humans. […] The cases of tinea used in the investigation involved selection of various types of tinea such as vesicular-type tinea, interdigital-type tinea, hyperkeratotic tinea, tinea corporis, tinea unguium, etc.
(§4) The dermatophytes that cause dermatophytosis, a typical form of dermatomycosis, are mainly Trichophyton rubrum and Trichophyton mentagrophytes. […] This confirmation of dermatophytes involved planting a sample of skin or nail of an area affected with tinea in a Candida nutrient medium (Nissui Pharmaceutical Co., Ltd.), isolating the dermatophytes that grow, and then confirming the dermatophytes through gene analysis or observation of morphology. A more detailed description of the fungus identification is provided in the examples.
A 1% test solution of ethylenediaminetetraacetic acid trisodium salt prepared in the same manner as Example 6 was applied by spraying once a day onto an area, approximately 5 cm wide and 3 cm long, of a chest affected by tinea corporis, which was denoted by flaring redness.
To 119 mg of ethylenediaminetetraacetic acid tetrasodium salt tetrahydrate was added 20% ethanol to prepare 1 L of 0.01% test solution. This test solution was applied by spraying, three times a day, to tinea corporis denoted by red flaring ridges that had occurred on the thigh.

[2] = JECFA evaluation of food additives; cited from earlier work
interdigital tinea = conditions: Example 7: 2% test solution sprayed once daily between toes; Trichophyton rubrum
T. rubrum IFM 59814 = assay: CLSI broth microdilution drug-sensitivity test; format: cell-based, Trichophyton rubrum
Protocol: as §1, §2

C. neoformans IFM5807 = assay: CLSI broth microdilution drug-sensitivity test; format: cell-based
Protocol: as §1, §2

C. albicans IFM 5740 = assay: CLSI broth microdilution drug-sensitivity test; format: cell-based
Protocol: as §1, §2

M. gypseum IFM 59816 = assay: CLSI broth microdilution drug-sensitivity test; format: cell-based
Protocol: as §1, §2

A. fumigatus IFM4942 = assay: CLSI broth microdilution drug-sensitivity test; format: cell-based
Protocol: as §1, §2

M. furfur = assay: Malassezia drug sensitivity test (Sugita et al., mLNA medium); format: cell-based
Protocol: as §1
(§5) The antifungal activity of the compounds of the present invention against Malassezia spp. was evaluated in drug sensitivity tests against human-related genus Malassezia species, performed in compliance with the methodology of Sugita et al. (2005). The test drug and mLNA nutrient medium were added to the wells of a 24-well microtiter plate with a total quantity of 2 mL. A 50 μL microbe suspension with a concentration of approximately 1×10^4 cell/mL was added to the medium, which was cultured aerobically for 7 days at 32° C. In comparison to the control (no test drug), the density required to completely prevent growth was set as the minimum inhibitory concentration (MIC).

Malassezia infection = conditions: Example 14: 1% test solution applied twice a day, lower-left abdomen
hyperkeratotic tinea = assay: Topical treatment of hyperkeratotic tinea, case reports; format: in vivo, humans
From the text: as §3, §4

E. floccosum IFM 53345 = assay: CLSI broth microdilution drug-sensitivity test; format: cell-based, Epidermophyton floccosum
Protocol: as §1, §2

M. obtusa = assay: organism not typed; conditions: 168 h
Protocol: as §1, §5

M. yamatoensis = assay: organism not typed; conditions: 168 h
Protocol: as §1, §5

M. dermatitis = assay: organism not typed; conditions: 168 h
Protocol: as §1, §5

M. sympodialis = assay: organism not typed; conditions: 168 h
Protocol: as §1, §5

M. japonica = assay: organism not typed; conditions: 168 h
Protocol: as §1, §5

M. slooffiae = assay: organism not typed; conditions: 168 h
Protocol: as §1, §5

M. restricta = assay: organism not typed; conditions: 168 h
Protocol: as §1, §5

M. globosa = assay: microbe, parasite or virus in culture; conditions: Malassezia globosa, 168 h
Protocol: as §1
as §5, with “In comparison to the control (no test drug), the density required to completely prevent growth was set as the minimum inhibitory concentration (MIC).” left out

[3] = Trichophyton mentagrophytes, IFM59813
[4] = Example 11: 2% test solution, big toe immersed in fingerstall, Trichophyton rubrum
[5] = Cryptococcus neoformans, IFM5807
[6] = Epidermophyton floccosum, IFM53345
[7] = T. mentagrophytes IFM 59813, broth microdilution

From the text for small red papules: Dermatophyte was isolated from the papules in this case, and was confirmed through gene analysis to be Trichophyton mentagrophytes.

SMILES: CCC(C)n1ncn(-c2ccc(N3CCN(c4ccc(OCC5COC(Cn6cncn6)(c6ccc(Cl)cc6Cl)O5)cc4)CC3)cc2)c1=O (stereo not drawn) [Itrizole, reference compound]
- outcome of oral therapy of tinea unguium (tinea unguium; Example 16: oral therapy, left-foot big-toe toenail): ineffective

SMILES: O=C([O-])c1ccccc1.O=C([O-])c1ccccc1.[Ca+2] [calcium benzoate]
- curative effect against tinea of the skin (tinea glabrosa; 1% aqueous solution (Example 15)): showed a curative effect
- time until skin symptoms disappeared (tinea eliminated) (tinea glabrosa; Example 15: 1% test solution in water atomized twice a day, abdominal region): about two

SMILES: O=C([O-])CN(CCN(CC(=O)O)CC(=O)O)CC(=O)[O-].[Na+].[Na+] [ethylenediaminetetraacetic acid disodium salt]
- MIC [1, 3]: 78 µg/mL
- healing of tinea corporis (tinea corporis): heal tinea corporis
- permissible daily intake [2]: ≤ 2.5 mg per 1 kg of body weight

SMILES: O=C([O-])CN(CCN(CC(=O)[O-])CC(=O)[O-])CC(=O)[O-].[Mg+2].[Na+].[Na+] [ethylenediaminetetraacetic acid magnesium disodium salt]
- MIC [1, 3]: 78 µg/mL

SMILES: O=C([O-])CN(CCN(CC(=O)[O-])CC(=O)[O-])CC(=O)[O-].[Na+].[Na+].[Na+].[Na+] [ethylenediaminetetraacetic acid tetrasodium salt]
- MIC [1, 3]: 39 µg/mL
- time until redness disappeared (tinea cured) (tinea corporis; Example 10: 0.01% test solution in 20% ethanol sprayed three times a day, thigh): approximately 2 weeks
- time until skin symptoms disappeared and healthy skin returned (interdigital tinea): approximately 2 months
- time until healthy nail grew from the nail base (tinea unguium; [4]): approximately 2 months
- time until recovery complete with a healthy nail (tinea unguium; [4]): 6 months

SMILES: O=C([O-])CN(CCN(CC(=O)[O-])CC(=O)O)CC(=O)[O-].[K+].[K+].[K+] [ethylenediaminetetraacetic acid tripotassium salt]
- MIC [1, 3]: 78 µg/mL

SMILES: O=C([O-])CN(CCN(CC(=O)[O-])CC(=O)O)CC(=O)[O-].[Na+].[Na+].[Na+] [ethylenediaminetetraacetic acid trisodium salt]
- MIC (T. rubrum IFM 59814; Trichophyton rubrum, IFM59814): 39 µg/mL
- MIC (C. neoformans IFM5807; [5]): 9.8 µg/mL
- MIC (C. albicans IFM 5740; Candida albicans, IFM5740): 0.2 µg/mL
- MIC (M. gypseum IFM 59816; Nannizzia gypsea, IFM59816): 78 µg/mL
- MIC (A. fumigatus IFM4942; Aspergillus fumigatus, IFM4942): 9.8 µg/mL
- MIC [1, 3]: 78 µg/mL
- MIC (M. furfur; Malassezia furfur, 168 h): 63 µg/mL
- time until light-brown area disappeared (Malassezia infection): approximately 3 weeks
- time until hyperkeratotic-type tinea eliminated and clean skin recovered (hyperkeratotic tinea; Example 5: 2% test solution (glycerin, 15% ethanol), sprayed twice daily, sole of foot, T. mentagrophytes and Candida isolated): approximately 2 months
- time until tinea eliminated and healthy skin returned (hyperkeratotic tinea; Example 6: 1% test solution, foot immersed 1 hour a day): about one and a half
- time until infected area entirely replaced by healthy skin (hyperkeratotic tinea; Example 17: 2% test solution sprayed twice a day, base of toes to arch, Trichophyton rubrum): approximately 6 months
- time until complete recovery of healthy skin (hyperkeratotic tinea; Example 21: 5% test solution sprayed twice a day, left and right heels, Trichophyton rubrum): 3 months
- time until red flaring disappeared and healthy skin returned (tinea corporis; Example 8: 1% test solution sprayed once a day, chest, Trichophyton mentagrophytes): approximately 2 weeks
- time until skin symptoms disappeared or cicatrized (tinea corporis healed) (tinea corporis; Example 9: 1% test solution sprayed once a day, left thigh, considered M. canis): approximately one
- healing of tinea corporis (tinea corporis): heal tinea corporis
- time until papules disappeared, completely healed (small red papules; Example 18: 2% test solution sprayed twice a day, scalp at back of head): 2 weeks
- time until papules disappeared, completely healed (small red papules; Example 19: 2% test solution sprayed twice a day, back of right thigh, Trichophyton mentagrophytes): 10 days
- MIC (E. floccosum IFM 53345; [6]): 78 µg/mL
- time until red papules cured completely (tinea glabrosa; Example 23: 2% solution once or twice a day, thigh, abdomen, breast or back, Aspergillus tubingensis, Basidiomycete and other fungi): 1-2 weeks
- time until complete cure of red papule (tinea glabrosa; Example 23: 2% solution twice a day, back of head, Aspergillus japonicus): two
- MIC (M. obtusa): 31 µg/mL
- MIC (M. yamatoensis): 63 µg/mL
- MIC (M. dermatitis): 31 µg/mL
- MIC (M. sympodialis): 63 µg/mL
- MIC (M. japonica): 63 µg/mL
- MIC (M. slooffiae): 63 µg/mL
- MIC (M. restricta): 31 µg/mL
- time until healthy skin and nail recovered (tinea unguium; Example 12: 2% test solution, little finger soaked in fingerstall at bedtime, T. mentagrophytes and Candida): 2 months
- outcome of tinea unguium treatment (tinea unguium; Example 16: 2% test solution sprayed twice a day, big-toe toenail refractory to oral Itrizole): curing the tinea
- time until tinea unguium cured (tinea unguium; Example 20: 3% test solution sprayed twice a day, little-toe toenail, Trichophyton rubrum): approximately 8 months
- time until healthy nail recovered (tinea unguium; Example 22: 10% test solution in water applied once a day, right thumb nail, Trichophyton rubrum): about one
- time until healthy nail restored (tinea unguium; Example 23: 20% test solution (glycerin, water) applied twice a day, right thumbnail, Trichophyton rubrum): about 1 year
- MIC (M. globosa): 63 µg/mL

SMILES: O=C([O-])c1ccccc1.O=C([O-])c1ccccc1.[Mg+2] [magnesium benzoate]
- MIC [1, 7]: 780 µg/mL

SMILES: O=C([O-])c1ccccc1.[K+] [potassium benzoate]
- MIC [1, 7]: 780 µg/mL

SMILES: C/C=C/C=C/C(=O)[O-].[K+] [potassium sorbate]
- MIC (T. rubrum IFM 59814; Trichophyton rubrum, IFM59814): 780 µg/mL
- MIC (C. neoformans IFM5807; [5]): 200 µg/mL
- MIC (C. albicans IFM 5740; Candida albicans, IFM5740): 3100 µg/mL
- MIC (M. gypseum IFM 59816; Nannizzia gypsea, IFM59816): 780 µg/mL
- MIC (A. fumigatus IFM4942; Aspergillus fumigatus, IFM4942): 780 µg/mL
- MIC [1, 3]: 390 µg/mL
- MIC (M. furfur; Malassezia furfur, 168 h): 310 µg/mL
- healing of tinea corporis (tinea corporis): heal tinea corporis
- MIC (E. floccosum IFM 53345; [6]): 200 µg/mL
- time until healthy nail regained (tinea unguium; Example 13: 1% test solution (1% glycerin, 15% ethanol), big-toe toenail immersed 1 hour a day): about 9 months

SMILES: O=C([O-])c1ccccc1.[Na+] [sodium benzoate]
- MIC (T. rubrum IFM 59814; T. rubrum IFM 59814, broth microdilution): 390 µg/mL
- MIC (C. neoformans IFM5807; C. neoformans IFM5807, broth microdilution): 1600 µg/mL
- MIC (C. albicans IFM 5740; C. albicans IFM 5740, broth microdilution): 6300 µg/mL
- MIC (M. gypseum IFM 59816; M. gypseum IFM 59816, broth microdilution): 1600 µg/mL
- MIC (A. fumigatus IFM4942; A. fumigatus IFM4942, broth microdilution): 3100 µg/mL
- MIC [1, 7]: 200 µg/mL
- MIC (M. furfur; M. furfur, 7 days at 32° C., complete prevention of growth): 310 µg/mL
- healing of tinea corporis (tinea corporis): heal tinea corporis
- MIC (E. floccosum IFM 53345; E. floccosum IFM 53345, broth microdilution): 200 µg/mL
- time until healthy nail restored (tinea unguium; Example 13: 1% test solution in 20% ethanol, thumb nail soaked in fingerstall one day, 10 times): about 3 months

SMILES: C/C=C/C=C/C(=O)[O-].[Na+] [sodium sorbate]
- MIC ([1]; Trichophyton mentagrophytes, IFM59813, T. mentagrophytes IFM 59813, broth microdilution, read-out: MIC): 780 µg/mL

From patent publication US20150196520A1, “METHOD AND PHARMACEUTICAL COMPOSITION FOR TREATING DERMATOPHYTOSIS” (priority 2012, published 2015)
